Columns and labels:
[1] = molecular target: T1, PXR ligand binding domain (LBD) (Homo sapiens, UniProt O75469); experiment: LanthaScreen TR-FRET PXR competitive binding assay; conditions: displacement of fluorescent reference ligand, 1:30 hours at room temperature, read-out: affinity for PXR
T1 construct: purchased Invitrogen
T1 sequence (O75469 146-433 limits assumed): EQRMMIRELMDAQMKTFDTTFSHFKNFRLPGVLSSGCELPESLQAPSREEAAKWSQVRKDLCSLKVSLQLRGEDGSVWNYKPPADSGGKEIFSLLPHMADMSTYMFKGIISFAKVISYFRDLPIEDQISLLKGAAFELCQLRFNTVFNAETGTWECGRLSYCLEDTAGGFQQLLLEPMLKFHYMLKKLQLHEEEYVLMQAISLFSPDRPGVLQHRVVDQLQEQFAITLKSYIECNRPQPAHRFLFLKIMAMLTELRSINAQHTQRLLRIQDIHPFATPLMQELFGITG
Protocol: The molecules were incubated for 1:30 hours at room temperature with the PXR LBD in the presence of a fluorescent reference ligand. The displacement of the fluorescent ligand caused by the prePROTAC or the PXR SR12813 ligand was measured by reading emissions at 520 nm and 495 nm after excitation at 337 nm on a PHERA-Star apparatus (BMG LABTECH).

PXR [2] = experiment: CYP3A4 mRNA expression by RT-qPCR in LS174T cells; type: cell-based; conditions: 5 μM, 48 h, with rifampicin 5 μM
Protocol: . After lysis of the cells and purification of the total RNAs (Qiagen RNAeasy), the complementary DNAs were prepared (SuperScript II in the presence of random primers of 6 nucleotides, Invitrogen). The expression of CYP3A4 mRNA and RPLO and actin housekeeping genes was measured by RT-qPCR on an LC480 apparatus (Roche) in the presence of SyberGreen (Millipore). The relative expression levels were calculated according to the RQ=Relative quantification=2-ΔΔCt method, the untreated cells serving as a calibrator set to 1. […]

HT29 cells [3] = experiment: Survival and chemoresistance of cancer stem cells in colon cancer cell lines; type: cell-based; conditions: 5 μM for 2 days, 5-FU and SN38 (Folfiri)
Protocol: (§1) The effects of the PROTACs on the survival and self-renewal of colic cancer stem cells were studied in vitro on the HT29 line or cancer cells isolated from patients (CRC1). The cells were treated with or without 5 μM PROTACs for 48 h before being analyzed: Aldefluor marking, enzymatic activity preferentially present in cancer stem cells (FIG. 10A); formation of tumorspheres under aseric and non-adherent conditions (FIG. 10B), and finally resistance to chemotherapy (FIGS. […] and 10D).
(§2) The tumorspheres with a diameter of more than 50 μM were counted 10 days after treatment and culturing of 200 cells per well (previously treated with poly2Hema in order to prevent any cell adhesion) in 100 μL of depleted BCS medium. These culture conditions allow only the survival of cancer stem cells. FIGS. 10C and 10D show the effects of the PROTACs JMV7048 and JMV7965 on survival (10C) and the ability to form tumorspheres (10D) of the HT29 cells maintained in the presence of different concentrations of 5-FU and SN38 (Folfiri 1X=50 μg 5-FU+500 nM SN38) and cultured in 100 μL of depleted BCS medium in dishes pretreated with poly2Hema in order to prevent any cell adhesion. The tumorspheres with a diameter of more than 50 μM were counted 10 days after seeding 200 cells/well.

PXR protein [4] = molecular target: T2, PXR protein (Homo sapiens, UniProt O75469); experiment: PXR degradation in LS174T cells by in vitro western blotting; type: cell-based; design: endogenous in cells; host or cells: LS174T; conditions: for expression level of the PXR protein: 5 μM, 24 h of treatment
T2 sequence (O75469 1-434): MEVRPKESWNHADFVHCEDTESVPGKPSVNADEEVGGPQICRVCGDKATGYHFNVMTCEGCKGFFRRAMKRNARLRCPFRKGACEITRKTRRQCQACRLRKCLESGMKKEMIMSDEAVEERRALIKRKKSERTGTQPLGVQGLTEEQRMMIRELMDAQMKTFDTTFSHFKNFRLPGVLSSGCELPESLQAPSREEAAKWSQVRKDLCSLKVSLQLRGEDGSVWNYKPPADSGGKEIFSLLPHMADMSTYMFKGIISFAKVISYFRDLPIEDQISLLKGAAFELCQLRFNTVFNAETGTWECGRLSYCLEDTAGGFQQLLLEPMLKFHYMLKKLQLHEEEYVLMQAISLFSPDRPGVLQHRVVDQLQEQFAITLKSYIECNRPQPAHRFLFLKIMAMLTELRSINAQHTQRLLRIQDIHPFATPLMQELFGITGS
Protocol: The effect of the PROTACs on the expression level of the PXR protein was studied by western blotting. The LS174T cells were […] in the absence or presence of 50 nM of an siRNA targeting PXR (siPXR: NR112 Silencer, Thermofischer) or treated by the PROTACs. After lysis of the cells (RIPA+antiproteases), the proteins were purified and assayed before being deposited ([…]) on 10% SDS-PAGE gel. […] The intensities of the signals were measured by a camera (BioRad MP Touch). […] FIGS. 6D and 6E illustrate the effect of JMV7048 on the expression level of PXR based on the treatment time (maximum effect reached after 3 h of treatment) and the concentration used (decrease dependent on the dose, with a maximum effect observed from 500 nM).

PXR protein [5] = molecular target: T2, PXR protein; experiment: Importance of the proteasome pathway for PXR degradation, western blotting in LS174T cells; type: cell-based; design: endogenous in cells; host or cells: LS174T; conditions: 24 hours
Protocol: The involvement of the proteasome pathway in the effects of PROTACs on the expression level of the PXR protein was studied by western blotting. The LS174T cells were treated for 24 hours with JMV7048 in the presence or absence of the […] (MLN4924) or the proteasome inhibitor (Bortezomib).

CRC1 cells = experiment: Aldefluor marking of cancer stem cells, CRC1; type: cell-based; conditions: 5 μM, 48 h, compared to untreated cells
Protocol: as §1, §2

HT29 cells [6] = experiment: Tumorsphere formation (Sphere Forming Cells), HT29; type: cell-based; conditions: 5 μM, 48 h, spheres counted after 10 days
Protocol: as §1, §2

HT29 cells [7] = experiment: Cell viability, Sulforhodamine B, HT29; type: cell-based; conditions: increasing concentrations, 72 h
Protocol: (§3) The effect of PROTACs on cell viability has been tested on various lines CRC1, HT29 and LS174T. The cells were incubated in the presence of increasing concentrations of molecules for 72 h before being fixed and marked by Sulforhodamine B (Sigma). After washing and lysis of the cells, the incorporated colorant released by the cells is directly proportional to the cell biomass. It is measured at […] by a 96-well plate spectrophotometer (Tecan). The signal obtained for the untreated cells is set at 100%.

PXR [8] = experiment: CYP3A4 protein expression by western blotting in LS174T cells; type: cell-based; design: dose or concentration left out as unconfirmed; conditions: 48 h
Protocol: The LS174T cells were treated for 48 h with […] JMV7048 in the presence or absence of rifampicin (PXR ligand) at […] final. After lysis of the cells (RIPA+antiproteases), the proteins were purified and assayed before being deposited (90 μg) on 10% SDS-PAGE gel. […] The intensities of the signals were measured by a camera (BioRad MP Touch).

CRC1 = experiment: Cell viability, Sulforhodamine B, CRC1; type: cell-based; conditions: CRC1 protoculture, increasing concentrations, 72 h
Protocol: as §3

LS174T = experiment: Cell viability, Sulforhodamine B, LS174T; type: cell-based; conditions: LS174T line, increasing concentrations, 72 h
Protocol: as §3

| Compound | effect on expression of CYP3A4 mRNA induced by rifampicin (PXR [2]) | expression level of the PXR protein (PXR protein [4]) | percentage of ALDH-positive cells (CRC1 cells) | toxicity (cell viability) (LS174T) | further results |
| --- | --- | --- | --- | --- | --- |
| Cc1cc(C)c(S(=O)(=O)Nc2ccc3c(c2)nc(CCCCCCCN)n3Cc2ccccc2)c(C)c1 [JMV6944, N-[2-(7-aminoheptyl)-1-benzyl-1H-1,3-benzodiazol-5-yl]-2,4,6-trimethylbenzene-1-sulfonamide] | additive effect on the expression of CYP3A4 mRNA |  |  |  | Kd [1]: 18.4 nM |
| Cc1cc(C)c(S(=O)(=O)Nc2ccc3c(c2)nc(CCCCCCCNC(=O)CCCCCN2CCN(c4ccc5c(c4)C(=O)N(C4CCC(=O)NC4=O)C5=O)CC2)n3Cc2ccccc2)c(C)c1 (centres unmarked) [JMV7048] | significantly reduce the induction of CYP3A4 | significantly reduce the expression level of the PXR protein | significantly reduce the percentage of ALDH-positive cells | absence of toxicity | survival and chemoresistance of stem cells (HT29 cells [3]): significantly reduces the survival and chemoresistance of stem cells; treatment time at which maximum effect on PXR expression level is reached (PXR protein [4]): 3 h; concentration from which maximum effect on PXR expression level is observed (PXR protein [4]; decrease dependent on the dose): ≥ 500 nM; decrease in PXR expression level with MLN4924 or Bortezomib (PXR protein [5]; with or without MLN4924 or Bortezomib): reverted by the CRBN ubiquitin ligase inhibitors (MLN4924, FIG. 8A) or by an inhibitor of the 26S proteasome; number of cells capable of surviving anoikis and forming tumorspheres (Sphere Forming Cells) (HT29 cells [6]): significantly reduce the number of HT29 cells; cell viability (HT29 cells [7]): does not affect the viability; effect on induction of the CYP3A4 enzyme mediated by rifampicin (PXR [8]): reduce the induction of the CYP3A4 enzyme; cell viability (CRC1): does not affect the viability |
| Cc1cc(C)c(S(=O)(=O)Nc2ccc3c(c2)nc(CCCCCCCNC(=O)CCCCCCN2CCN(c4ccc5c(c4)C(=O)N(C4CCC(=O)NC4=O)C5=O)CC2)n3Cc2ccccc2)c(C)c1 (centres unmarked) [JMV7505] |  | significantly reduce the expression level of the PXR protein | significantly reduce the percentage of ALDH-positive cells | absence of toxicity |  |
| Cc1cc(C)c(S(=O)(=O)Nc2ccc3c(c2)nc(CCCCCCCNC(=O)CCCCCCN2CCN(c4ccc(C(=O)NC5CCC(=O)NC5=O)cc4)CC2)n3Cc2ccccc2)c(C)c1 (centres unmarked) [JMV7605] |  | significantly reduce the expression level of the PXR protein |  | absence of toxicity |  |
| Cc1cc(C)c(S(=O)(=O)Nc2ccc3c(c2)nc(CCCCCCCNC(=O)CCCCCN2CCN(C4CCC5C(=O)N(C6CCC(=O)N(C)C6=O)C(=O)C5C4)CC2)n3Cc2ccccc2)c(C)c1 (centres unmarked) [JMV7159] | additive effect on the expression of CYP3A4 mRNA |  |  |  | expression level of the PXR protein (PXR protein [5]): does not cause a decrease in the expression level of PXR |
| Cc1cc(C)c(S(=O)(=O)Nc2ccc3c(c2)nc(CCCCCCCNC(=O)CN2CCC(CN4CCN(c5ccc6c(c5)C(=O)N(C5CCC(=O)NC5=O)C6=O)CC4)CC2)n3Cc2ccccc2)c(C)c1 (centres unmarked) [JMV7965] | significantly reduce the induction of CYP3A4 | significantly reduce the expression level of the PXR protein | significantly reduce the percentage of ALDH-positive cells |  | survival and chemoresistance of stem cells (HT29 cells [3]): significantly reduces the survival and chemoresistance of stem cells; number of cells capable of surviving anoikis and forming tumorspheres (Sphere Forming Cells) (HT29 cells [6]): significantly reduce the number of HT29 cells; effect on induction of the CYP3A4 enzyme mediated by rifampicin (PXR [8]): reduce the induction of the CYP3A4 enzyme |
| Cc1cc(C)c(S(=O)(=O)Nc2ccc3c(c2)nc(CCCCCCCNC(=O)CCCCCCCN2CCN(c4ccc5c(c4)C(=O)N(C4CCC(=O)NC4=O)C5=O)CC2)n3Cc2ccccc2)c(C)c1 (centres unmarked) [JMV7506] |  | significantly reduce the expression level of the PXR protein | significantly reduce the percentage of ALDH-positive cells |  |  |

From patent US20240252658A1, “BIFUNCTIONAL PROTAC-TYPE COMPOUNDS TARGETING PXR, METHOD FOR PREPARING SAME AND THERAPEUTIC USE THEREOF” (Centre National de la Recherche Scientifique, priority 2021, published 2024)
